According to publication PMC7961996, “Small Immunomodulatory Molecules as Potential Therapeutics in Experimental Murine Models of Acute Lung Injury (ALI)/Acute Respiratory Distress Syndrome (ARDS)” (International Journal of Molecular Sciences, 2021):
Several values for one entry are separate records, joined by “and”; a condition that tells them apart may be missing. Equal values may be shown once. Read-outs that look alike come from different tables or passages of the source.

Tests used:
CLP-induced sepsis mice = assay: CLP-induced lung and organ injury, histopathology scoring; format: in vivo, C57BL6/J mice
Description: For CLP-induced lung injury, CLP was performed as previously described by us. As antibiotics are the standard of care in sepsis patients, one dose of imipenem was given SC at 5 mg/kg 30 min after the procedure, followed by two doses of AVR-48 (10 mg/kg, IV) at 16 h and 24 h following the surgery, and sacrificed after 72 h. The sham mice (controls) had the abdominal cavity opened, the cecum was not perforated, and the peritoneum was stitched back.
H&E staining was performed on 5 µm paraffin lung tissue sections following standardized methods. Four to five random images per lung and 4–5 lungs per experimental group were characterized for lung injury score analysis.
Two different scoring systems were used for lung injury scoring, as the experiments were done at different times. The LPS-/hyperoxia-induced ALI scoring was done by DS, while the CLP-induced lung and other organs’ scoring was done by two additional independent investigators (PD and BA). For the hyperoxia- and LPS-induced lung injury, scoring was done on histological sections based on neutrophil infiltration and epithelial injury using the methods as described before with modifications. Four to five random images per lung and 4–5 lungs per experimental group were characterized for lung injury score analysis. We used a 0–4 scoring system in which 0 = no infiltration/injury, 1 = minimal infiltration/injury to 25% of the field, 2 = mild infiltration/injury […] of the field, 3 = moderate infiltration/injury to 75% of the field, and 4 = severe infiltration/diffuse injury. For the CLP-induced ALI, scoring was done following the methodology as reported earlier by a qualified pathologist (BA) in masked manner. Lungs were harvested from all the mice after the endpoint, and lung injury was scored based on the criteria of alveolar damage and vascular congestion and hemorrhage. As CLP-induced sepsis also results in damage to the rest of the viscera, which can contribute to ALI/ARDS, other organs were also scored as above, to determine the recovery potential of AVR-48 as a candidate drug. The following (cells) were taken into account while scoring the injury level followed by recovery after treatment in other vital organs: heart (myocardium), kidney (glomeruli, tubules), gut (mucosal cells, enterocytes), spleen (lymphoid follicles), liver (hepatocytes), brain (neuronal damage), testis (Seminiferous tubules), and lymph nodes. The final scores were calculated on the basis of total percentage of the damaged/recovered area and by the number of areas/High power field (HPF) as reported above.

[1] = Pharmacokinetic (toxicokinetic) study, plasma; format: in vivo, Sprague Dawley rats; details: for RAUC (RATIO): Day 3 AUC(0-t) / Day 1 AUC(0-t) / Cmax / Tmax / half-life / clearance / Vd / AUC(0-t): plasma; for Cmax / Tmax / half-life / clearance / Vd / AUC(0-t): Sprague Dawley, rat
Description: For the PK study of AVR-48 in rats, a formulation consisting of 10% DMSO, 20% tetraglycol, 20% PEG 400, and 50% sterile water was developed. Each preparation was made on the same day of dose administration. The components of the control/vehicle item formulation were added sequentially. Briefly, the appropriate volume of DMSO (10% of the final volume) was measured into a container followed by gradual addition of PEG 400 (20% of the final volume) and sterile water (50% of the final volume) to make up the volume and mixed thoroughly till completely dissolved. The final solution was filtered through a 0.22 µm membrane filter (Millipore Millex® GP PES, St. Louis, MO, USA) into a sterile vial. All PK studies were also conducted with 8–10-week-old male and female Sprague Dawley rats. An additional nine animals/sex/dose were used for PK analysis and blood (approximately 0.3 mL each) was collected from each rat on days 1 and 3 of the treatment period at time points of 5, 30, 60, 90, 120, and 180 min, and 6, 12 h, and 24 h post dose that were randomized to provide a total of three samples/sex for each time point. Samples were collected by jugular venipuncture and the samples were collected into tubes containing the anticoagulant, K3EDTA. The collection of BALF was limited to the terminal time points of 6 h, 12 h, and 24 h. AVR-48 concentrations in the blood and BALF were determined using LC/MS/MS analysis developed in house. PK parameters were estimated using Phoenix pharmacokinetic software (Certara, Princeton, NJ, USA) using a non-compartmental approach consistent with the IV bolus injection.

[2] = AVR-48 10 mg/kg IV x2 after CLP
[3] = after CLP, Mean ± SEM, CLP alone 4.8± 0.2

SMILES: CC(=O)N[C@H]1[C@H](Oc2ccc([N+](=O)[O-])cc2)O[C@H](CO)[C@@H](O)[C@@H]1O [AVR-48, N-((2S,3R,4R,5S,6R)-4,5-dihydroxy-6-(hydroxymethyl)-2-(4-nitrophenoxy)tetrahydro-2H-pyran-3-yl) acetamide]
- lung injury score vs CLP group (CLP-induced sepsis mice; AVR-48 10 mg/kg IV at 16 h and 24 h, sacrificed after 72 h, p < 0.001): significant recovery
- appearance of the lung (histopathology) (CLP-induced sepsis mice; [2]): decreased inflammation and hemorrhage
- histopathological changes in other vital organs vs CLP-only group (CLP-induced sepsis mice; [2]): dramatic improvement
- Injury score: Brain, Neuronal Damage (CLP-induced sepsis mice; [3]): 3.6± 0.245
- Injury score: Brain, Vascular Congestion & Hemorrhage (CLP-induced sepsis mice; [3]): 3.4± 0.245
- Injury score: Gut, MVD (CLP-induced sepsis mice; [3]): 3.6± 0.245
- Injury score: Gut, Vascular Congestion & Hemorrhage (CLP-induced sepsis mice; [3]): 3.6± 0.245
- Injury score: Heart, Myocardial Damage (CLP-induced sepsis mice; [3]): 3.4± 0.245
- Injury score: Heart, Vascular Congestion & Hemorrhage (CLP-induced sepsis mice; [3]): 3.4± 0.4
- Injury score: Kidney, Glomerular Damage (CLP-induced sepsis mice; [3]): 3.6± 0.245
- Injury score: Kidney, Glomerular Injury (CLP-induced sepsis mice; [3]): 3.6± 0.245
- Injury score: Kidney, Vascular Congestion & Hemorrhage (CLP-induced sepsis mice; [3]): 3.6± 0.245
- Injury score: Liver, Hepatocyte Injury (CLP-induced sepsis mice; [3]): 3.6± 0.245
- Injury score: Liver, Vascular Congestion & Hemorrhage (CLP-induced sepsis mice; [3]): 3.6± 0.245
- Injury score: Lung, Alveolar Damage (CLP-induced sepsis mice; [3]): 3.6± 0.245
- Injury score: Lung, Vascular Congestion and Hemorrhage (CLP-induced sepsis mice; [3]): 3.6± 0.245
- Injury score: Lymph Node, Follicular Damage (CLP-induced sepsis mice; [3]): 3.4± 0.245
- Injury score: Spleen, Vascular Congestion & Hemorrhage (CLP-induced sepsis mice; [3]): 3.6± 0.245
- Injury score: Testis, Tubular Damage (CLP-induced sepsis mice; [3]): 3.6± 0.245
- Injury score: Testis, Vascular Congestion & Hemorrhage (CLP-induced sepsis mice; [3]): 3.6± 0.245
- RAUC (RATIO): Day 3 AUC(0-t) / Day 1 AUC(0-t) ([1]; 40 mg/kg IV, Female): 0.679
- RAUC (RATIO): Day 3 AUC(0-t) / Day 1 AUC(0-t) ([1]; 40 mg/kg IV, Male): 0.928
- RAUC (RATIO): Day 3 AUC(0-t) / Day 1 AUC(0-t) ([1]; 80 mg/kg IV, Female): 0.953
- RAUC (RATIO): Day 3 AUC(0-t) / Day 1 AUC(0-t) ([1]; 80 mg/kg IV, Male): 0.777
- Cmax ([1]; iv, 40 mg/kg, 40 mg/kg dose IV, read-out: Cmax): 364 ± 9.36 µM
- Cmax ([1]; iv, 80 mg/kg, 80 mg/kg dose IV, read-out: Cmax): 749.3 ± 5.25 µM
- Cmax ([1]; other: IV or IP, 10 mg/kg, single IV or IP 10 mg/kg dose, extrapolated from Cmax at 40 mg/kg, read-out: Cmax in plasma expected for 10 mg/kg): ~91 µM
- Tmax ([1]; Day 1, 40 mg/kg IV, Female): 5 min
- Tmax ([1]; Day 1, 80 mg/kg IV, Female): 5 min
- Tmax ([1]; Day 1, 80 mg/kg IV, Male): 5 min
- Tmax ([1]; Day 3, 40 mg/kg IV, Male): 5 min
- AUC(0-t) dose dependence ([1]; between 40 and 80 mg/kg/day dose groups): increased in a dose-dependent manner
- half-life ([1]; both sexes, intravenous, 80 mg/kg, both doses (40 and 80 mg/kg), read-out: half-life (T1/2)): 1.4 to 2.34 h
- clearance ([1]; both sexes, intravenous, day 1 and day 3 of dosing, read-out: clearance (CL)): 12.4 to 18.3 mL/min/kg
- Vd ([1]; both sexes, intravenous, day 1 and day 3 of dosing, read-out: volume of distribution (Vd)): 1.51 to 3.72 L/kg
- AUC(0-t) ([1]; female, iv, 40 mg/kg, Day 1, 40 mg/kg IV, Female): 53900 ± 2860 ng·h/mL
- clearance ([1]; female, iv, 40 mg/kg, Day 1, 40 mg/kg IV, Female, read-out: Cl (converted)): 12.4 mL/min/kg
- Cmax ([1]; female, iv, 40 mg/kg, Day 1, 40 mg/kg IV, Female, read-out: Cmax ± SE): 129000 ng/mL and 377 µM
- half-life ([1]; female, iv, 40 mg/kg, Day 1, 40 mg/kg IV, Female, read-out: T1/2 (converted)): 1.4 h
- Vd ([1]; female, iv, 40 mg/kg, Day 1, 40 mg/kg IV, Female, read-out: Vd): 1.51 L/kg
- AUC(0-t) ([1]; female, iv, 40 mg/kg, Day 3, 40 mg/kg IV, Female): 36600 ng·h/mL
- clearance ([1]; female, iv, 40 mg/kg, Day 3, 40 mg/kg IV, Female, read-out: Cl (converted)): 18.3 mL/min/kg
- Cmax ([1]; female, iv, 40 mg/kg, Day 3, 40 mg/kg IV, Female, read-out: Cmax ± SE): 90400 ng/mL and 264 µM
- half-life ([1]; female, iv, 40 mg/kg, Day 3, 40 mg/kg IV, Female, read-out: T1/2 (converted)): 2.34 h
- Vd ([1]; female, iv, 40 mg/kg, Day 3, 40 mg/kg IV, Female, read-out: Vd): 3.72 L/kg
- AUC(0-t) ([1]; female, iv, 80 mg/kg, Day 1, 80 mg/kg IV, Female): 101000 ng·h/mL
- clearance ([1]; female, iv, 80 mg/kg, Day 1, 80 mg/kg IV, Female, read-out: Cl (converted)): 13.4 mL/min/kg
- Cmax ([1]; female, iv, 80 mg/kg, Day 1, 80 mg/kg IV, Female, read-out: Cmax ± SE): 237000 ng/mL and 692 µM
- half-life ([1]; female, iv, 80 mg/kg, Day 1, 80 mg/kg IV, Female, read-out: T1/2 (converted)): 1.45 h
- Vd ([1]; female, iv, 80 mg/kg, Day 1, 80 mg/kg IV, Female, read-out: Vd): 1.68 L/kg
- AUC(0-t) ([1]; female, iv, 80 mg/kg, Day 3, 80 mg/kg IV, Female): 95800 ng·h/mL
- clearance ([1]; female, iv, 80 mg/kg, Day 3, 80 mg/kg IV, Female, read-out: Cl (converted)): 14 mL/min/kg
- Cmax ([1]; female, iv, 80 mg/kg, Day 3, 80 mg/kg IV, Female, read-out: Cmax ± SE): 227000 ng/mL and 663 µM
- half-life ([1]; female, iv, 80 mg/kg, Day 3, 80 mg/kg IV, Female, read-out: T1/2 (converted)): 2.05 h
- Vd ([1]; female, iv, 80 mg/kg, Day 3, 80 mg/kg IV, Female, read-out: Vd): 2.48 L/kg
- AUC(0-t) ([1]; male, iv, 40 mg/kg, Day 1, 40 mg/kg IV, Male): 49800 ± 962 ng·h/mL
- clearance ([1]; male, iv, 40 mg/kg, Day 1, 40 mg/kg IV, Male, read-out: Cl (converted)): 13.4 mL/min/kg
- Cmax ([1]; male, iv, 40 mg/kg, Day 1, 40 mg/kg IV, Male, read-out: Cmax ± SE): 351 µM and 120000 ng/mL
- half-life ([1]; male, iv, 40 mg/kg, Day 1, 40 mg/kg IV, Male, read-out: T1/2 (converted)): 1.64 h
- Vd ([1]; male, iv, 40 mg/kg, Day 1, 40 mg/kg IV, Male, read-out: Vd): 1.91 L/kg
- AUC(0-t) ([1]; male, iv, 40 mg/kg, Day 3, 40 mg/kg IV, Male): 46200 ng·h/mL
- clearance ([1]; male, iv, 40 mg/kg, Day 3, 40 mg/kg IV, Male, read-out: Cl (converted)): 14.5 mL/min/kg
- Cmax ([1]; male, iv, 40 mg/kg, Day 3, 40 mg/kg IV, Male, read-out: Cmax ± SE): 115000 ng/mL and 336 µM
- half-life ([1]; male, iv, 40 mg/kg, Day 3, 40 mg/kg IV, Male, read-out: T1/2 (converted)): 2.16 h
- Vd ([1]; male, iv, 40 mg/kg, Day 3, 40 mg/kg IV, Male, read-out: Vd): 2.71 L/kg
- AUC(0-t) ([1]; male, iv, 80 mg/kg, Day 1, 80 mg/kg IV, Male): 118000 ng·h/mL
- clearance ([1]; male, iv, 80 mg/kg, Day 1, 80 mg/kg IV, Male, read-out: Cl (converted)): 11.3 mL/min/kg
- Cmax ([1]; male, iv, 80 mg/kg, Day 1, 80 mg/kg IV, Male, read-out: Cmax ± SE): 276000 ng/mL and 806 µM
- half-life ([1]; male, iv, 80 mg/kg, Day 1, 80 mg/kg IV, Male, read-out: T1/2 (converted)): 2.05 h
- Vd ([1]; male, iv, 80 mg/kg, Day 1, 80 mg/kg IV, Male, read-out: Vd): 2.02 L/kg
- AUC(0-t) ([1]; male, iv, 80 mg/kg, Day 3, 80 mg/kg IV, Male): 91500 ng·h/mL
- clearance ([1]; male, iv, 80 mg/kg, Day 3, 80 mg/kg IV, Male, read-out: Cl (converted)): 14.7 mL/min/kg
- Cmax ([1]; male, iv, 80 mg/kg, Day 3, 80 mg/kg IV, Male, read-out: Cmax ± SE): 190000 ng/mL and 555 µM
- half-life ([1]; male, iv, 80 mg/kg, Day 3, 80 mg/kg IV, Male, read-out: T1/2 (converted)): 1.42 h
- Vd ([1]; male, iv, 80 mg/kg, Day 3, 80 mg/kg IV, Male, read-out: Vd): 1.8 L/kg
- accumulation ([1]; three days of twice daily administration): no accumulation
